Values joined by “and” are separate entries in the source; they are usually repeats but may differ in a detail not shown here. Equal values may be shown once.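 Following 48 hours of exposure in 96-well plates, responses at five concentrations were used to interpolate endpoints linearly. GI50: concentration for 50% inhibition of growth. TGI: total growth inhibition.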

Common to all, as to assay: NCI-60 cell line screen, 48 h
For assay [1], the system named is BT-549 breast.
Assay [2] deals with IGROV1 ovarian.
For assay [3], the system named is HOP-62 NSCLC.
The test system of assay [4] is KM12 colon.
Assay [5] deals with TK-10 renal.
Assay [6] deals with SN12C renal.
The test system of assay [7] is MDA-MB-435.
Assay [8] has as its system OVCAR-4 ovarian.
Assay [9] has as its system PC-3 prostate.
The subject of assay [10] is RXF 393 renal.
The subject of assay [11] is SR leukemia.

For `CC1(C)OC[C@@]2([C@@H]3CC[C@@H](C3)C2(C)C)N1O`, the TGI in [1], in assay [2], in assay [3], in assay [4], in assay [5] and in [6] was above 100 µM in each case. Moreover, the TGI in assay [7], in assay [8], in [9] and in [10] was above 100 µM in each case.

As for `CC1(C)OC2CN(C(=O)OCc3ccccc3)C(CO)C2O1` (stereo not given), the TGI in assay [1], in [2], in assay [3], in assay [4], in [5] and in assay [6] was above 100 µM throughout. The TGI in assay [7], in assay [8], in assay [9] and in assay [10] was above 100 µM in each case.

As for `CCO[C@H]1C[C@@H](c2ccccc2)[C@]2(C)C[C@H](C(=O)OC)ON2O1`, the TGI in [1], in assay [2], in assay [3], in [4], in assay [5] and in [6] was above 100 µM throughout. The TGI in [7], in assay [8], in assay [9] and in [10] was above 100 µM in each case.

With `CNC(=O)CNC(=O)CCC(=O)N(C)C`, the TGI in assay [1], in [2], in [3], in [4], in [5] and in [6] was above 100 µM in each case. The TGI in assay [7] and in assay [9] was above 100 µM each time.

For the compound `CCOC(=O)NC(N(C)C(C(C)C)P(=O)(OCC)OCC)(C(F)(F)F)C(F)(F)F` (stereo not given), the TGI in [2], in assay [3], in [4], in assay [5], in assay [6] and in assay [7] was above 100 µM in each case. In addition, the TGI in [8], in assay [11], in assay [9] and in assay [10] was above 100 µM in each case.

Turning to `CSc1nc(-c2cc3c(c(SC)n2)CCC3)cc2c1CCC2`, the TGI in [1], in assay [3], in assay [4], in assay [5], in [6] and in assay [7] was above 100 µM throughout. Moreover, the TGI in assay [8], in assay [9] and in assay [10] was above 100 µM throughout.

`CC(=O)O/C(=C(/C#N)C(=O)O)C1C(C(=O)O)C(c2ccccc2[N+](=O)[O-])C=C(c2ccco2)N1c1ccncc1` (stereo not given): the TGI came out at 16.3 µM in assay [1]; 3.29 µM in assay [2]; 21.6 µM in assay [3]; 3.14 µM in [4]; 11.3 µM in [5]; 10.2 µM in [6]. Further, the TGI in assay [7] was 15.7 µM; in assay [8] it was 37.4 µM; in [9] it was 18.4 µM.

In the case of `O=C(c1ccc(Cl)cc1)N(C(=S)N1CCN(c2ccccc2)CC1)c1ccccc1`, the TGI in [2], in assay [3], in assay [4], in assay [5], in assay [6] and in [8] was above 100 µM throughout. Further, the TGI in assay [11] and in assay [10] was above 100 µM throughout.

For `COc1cc(/C=C/C(=O)O)ccc1O`, the TGI in assay [2], in assay [3], in [4], in assay [5], in [6] and in assay [7] was above 100 µM each time. Further, the TGI in [8], in assay [11] and in [9] was above 100 µM in each case.

Turning to `CN(C)CCCNC(=O)CNC(=O)c1cc(NC(=O)c2cc(NC(=O)c3cc(NC(=O)CCNC(=O)c4cc(NC(=O)c5cc(NC(=O)c6nccn6C)cn5C)cn4C)cn3C)cn2C)cn1C`, the TGI in assay [2], in assay [3], in assay [4], in assay [5], in assay [6] and in assay [7] was above 100 µM in each case. Also, the TGI in assay [8] and in assay [9] was above 100 µM each time.

Consider `CCCC(=O)N[C@@H](Cc1cc(I)c(O)c(I)c1)C(=O)NCCCNCCCCNCCCNC(=O)[C@@H](N)CCCN=C(N)N`, for which the TGI in [2], in assay [3], in [4], in assay [5], in [6] and in assay [11] was above 100 µM throughout. In addition, the TGI in assay [10] was above 100 µM.

Turning to `CC1CSc2nc3[nH]c(=S)[nH]c3c(=O)n2C1` (stereo not given), the TGI in assay [1], in [2], in assay [3], in assay [4], in [5] and in [6] was above 100 µM throughout. In addition, the TGI in assay [7], in [8] and in [10] was above 100 µM throughout.

In the case of `Cc1[nH]n(-c2nc(O)c(C)c(=O)[nH]2)c(=O)c1CCO`, the TGI in [1], in assay [2], in assay [4], in assay [5], in assay [6] and in assay [7] was above 100 µM in each case. Also, the figures for the TGI in assay [8], in [9] and in assay [10] were above 100 µM, above 100 µM and 93.3 µM, respectively.

As to `CCCN(CCC)C(=O)Cc1c2n(c3ccccc13)Cc1ccccc1-2`, the TGI in [3], in assay [4], in [5], in [6], in [8] and in assay [11] was above 100 µM throughout. The compound further gave a TGI in [10] above 100 µM.

Turning to `COc1ccccc1/C=C1/Sc2scc(CC(=O)Nc3ccccc3)[n+]2C1=O`, the TGI in assay [1] was 93.2 µM; in [2], above 100 µM; in assay [3] it was above 100 µM; in [4] it was above 100 µM; in [5] it was 74.3 µM; in [6], above 100 µM. Moreover, the TGI in assay [7] was above 100 µM; in assay [8], above 100 µM; in assay [9], 93.3 µM; in assay [10], 80.8 µM.

With `COC(=O)c1cc(C)ccc1CC(Cc1ccccc1C)C(=O)OC` (stereo not given), the TGI in assay [1], in assay [2], in [3], in assay [4], in [5] and in [6] was above 100 µM each time. Also, the TGI was 43.8 µM in [7], above 100 µM in assay [8], above 100 µM in assay [9] and 77.6 µM in [10].

Regarding `Cc1ccc(NNc2cc(=O)[nH]c(=O)[nH]2)cc1Cl`, the TGI in assay [1] was above 100 µM; in [2], 27.6 µM; in assay [3] it was above 100 µM; in [4], above 100 µM; in assay [5] it was 33.1 µM; in assay [6], above 100 µM. For the same compound, the TGI in assay [8] was 28.5 µM; in [11], above 100 µM; in assay [9], above 100 µM; in assay [10] it was 30.4 µM.

`COc1ncc(C#CC(=O)c2ccccc2OC)c(OC)n1`: the TGI in assay [1] is 5.21 µM; in assay [2], 3.98 µM; in assay [3], 40.5 µM; in assay [4] it was 18.4 µM; in assay [5], 2.62 µM; in assay [6], 1.91 µM. For the same compound, the TGI was 8.44 µM in assay [7], 20.7 µM in assay [8], 4.3 µM in assay [9] and 3.32 µM in assay [10].

For the compound `O=C1NC(N/N=C/C(O)C(O)C(O)C(O)CO)=N/C1=C\c1cccs1` (stereo not given), the TGI in assay [1], in assay [2], in assay [3], in [4], in assay [5] and in [6] was above 100 µM each time. Further, the TGI in assay [7], in assay [8], in assay [9] and in assay [10] was above 100 µM each time.

For the compound `O/N=C1\CC2(N3CCOCC3)CCC1(Cc1ccccc1)CC2`, the TGI was above 100 µM in [2]; 47.8 µM in assay [3]; above 100 µM in assay [4]; above 100 µM in assay [6]; above 100 µM in assay [7]; 84.8 µM in assay [8]. Further, the TGI is above 100 µM in [11], above 100 µM in assay [9] and 42 µM in [10].

Regarding `CCOC(=O)c1ccc(Nc2nc3ccc(C(F)(F)F)cc3nc2-c2ccccc2)cc1`, the TGI in [2], in [3], in assay [4], in assay [5], in [6] and in [7] was above 100 µM in each case. The TGI in assay [11], in [9] and in [10] was above 100 µM in each case.

On to `CCOC(=O)c1c(NC(=O)c2ccccc2)sc2c1CCC2`, for which the TGI in assay [1], in assay [2], in assay [3], in [4], in assay [5] and in assay [6] was above 100 µM throughout. Besides, the TGI in assay [11], in assay [9] and in [10] was above 100 µM in each case.

As for `CCOC(=O)/C=C/[C@H](O[Si](c1ccccc1)(c1ccccc1)c1ccccc1)C(C)(C)C`, the TGI in [2], in assay [3], in [4], in [5], in [6] and in [7] was above 31.6 µM throughout. The TGI in [8], in assay [9] and in [10] was above 31.6 µM throughout.

Regarding `C[C@@H]1CCN(C(=O)CC#N)C[C@@H]1N(C)c1ncnc2[nH]ccc12`, the GI50 in [2] was 65.8 µM; in assay [3], 40.6 µM; in assay [4], 34 µM; in [5], 38.1 µM; in assay [7], above 100 µM; in assay [8], above 100 µM. For the same compound, the GI50 in [10] was 16.3 µM. In addition, the TGI in assay [2], in assay [3], in assay [4], in assay [5], in [7] and in [8] was above 100 µM in each case. The TGI in assay [10] was found to be 85.3 µM.

For the compound `C/C=C/OC1C(C2COC(C)(C)O2)OC2OC(C)(C)OC21` (stereo not given), the TGI in assay [2], in [3], in [5], in assay [7], in [8] and in assay [11] was above 100 µM in each case. The TGI in assay [9] and in [10] was above 100 µM in each case.

`O=[N+]([O-])c1cccc2nc3ccccc3c(NCCNCCO)c12`: the TGI is 0.0273 µM and 0.0259 µM in [1]; 0.0233 µM and 0.0569 µM in assay [2]; 0.0799 µM and 0.0174 µM in [3]; 0.0277 µM and 0.0202 µM in assay [4]; 0.173 µM in [6]; 0.0278 µM and 0.014 µM in assay [7]. Besides, the TGI in assay [8] came to 0.0162 µM; in assay [9] it was 0.017 µM; in assay [10], 0.0205 µM.

Consider `Cc1ccc(S(=O)(=O)OCC23CCC(C4CC42)C2CC23)cc1` (stereo not given), for which the TGI in assay [2], in [3], in assay [5], in assay [6], in [8] and in assay [11] was above 100 µM throughout.

For `O=S(=O)(NC(c1ccccc1)(c1cc2ccccc2[nH]1)c1cc2ccccc2n1S(=O)(=O)c1ccccc1)c1ccccc1` (stereo not given), the TGI in assay [1], in assay [2], in [3], in assay [4], in assay [5] and in [7] was above 100 µM in each case. For the same compound, the TGI in assay [8], in assay [11] and in assay [9] was above 100 µM each time.

Values taken from PubChem BioAssay (NCI).
